Data reported in patent US5264372A (Amylin Pharmaceuticals, Inc., priority 1991, dated 1993).

Key:
[1] = biological target: T1, ^125 I-h CGRP binding site (CGRP receptor) in rat liver membranes (Rattus norvegicus, UniProt Q63118+Q9JJ74); experiment: 125I-h CGRP binding to rat liver membranes (saturation and competition)
T1 construct: from tissue; host or cells: rat liver membranes
Procedure: Membranes were prepared from male Wistar or Sprague-Dawley rats (200-250 grams). Following decapitation, liver, soleus muscle and brain regions were removed to phosphate-buffered saline (PBS), pH 7.4 at 4° C. Tissues were weighed then placed in 5 ml/g tissue of ice-cold 20 mM HEPES buffer, pH 7.4, and homogenized with a Polytron at setting 4 for 10 seconds. An additional 30 ml of cold HEPES was added, and the homogenates centrifuged for 15 minutes at 48,000×g. After discarding the supernatant fluids, membrane pellets were homogenized in 40 ml of fresh HEPES buffer and centrifuged as before. Membranes were washed again by homogenization in buffer and centrifugation.
The final membrane pellet was resuspended in a volume of 20 mM HEPES buffer containing 0.2 mM PMSF added immediately before use from a stock 0.2 M solution in ethanol. A volume of buffer was used sufficient to yield a concentration of about 0 to about 20 mg original tissue/ml.
To 12×75 mm glass or polypropylene tubes were added 150 μl of HBBM buffer (20 mM HEPES buffer, pH 7.4, containing 1 mg/ml bacitracin, 1 mg/ml protease-free BSA Fraction V, 4 mM MgCl2) to which 0.2 mM PMSF was added just prior to use.
To this solution, 50 μl of unlabeled peptide diluted in HBBM buffer at concentrations of […] to 10^-6 M, were added. Control tubes contained HBBM alone. […] Incubations were begun by the addition of 250 μl of buffer containing membranes from 4 mg original weight of tissue, and continued for 60 minutes at room temperature (24° C.).
Suspensions were then filtered through GF/B glass fiber filters (previously soaked for 5 hours in 0.3% PEI) in a Brandel M-24 harvester. Filters were washed immediately before use with 5 ml of cold PBS, and immediately after filtration with 15 ml cold PBS. Filters were then counted in a gamma-counter.
The concentration of free ligand was derived by subtracting […] from total ligand added.
Scatchard and competition curve analysis was performed as described above.

[2] = biological target: ^125 I-CGRP binding sites in membranes from rat cerebellum (Rattus norvegicus, UniProt Q63118+Q9JJ74)
^125 I-CGRP binding sites in membranes from rat cerebellum, sequence (Q63118 24-464): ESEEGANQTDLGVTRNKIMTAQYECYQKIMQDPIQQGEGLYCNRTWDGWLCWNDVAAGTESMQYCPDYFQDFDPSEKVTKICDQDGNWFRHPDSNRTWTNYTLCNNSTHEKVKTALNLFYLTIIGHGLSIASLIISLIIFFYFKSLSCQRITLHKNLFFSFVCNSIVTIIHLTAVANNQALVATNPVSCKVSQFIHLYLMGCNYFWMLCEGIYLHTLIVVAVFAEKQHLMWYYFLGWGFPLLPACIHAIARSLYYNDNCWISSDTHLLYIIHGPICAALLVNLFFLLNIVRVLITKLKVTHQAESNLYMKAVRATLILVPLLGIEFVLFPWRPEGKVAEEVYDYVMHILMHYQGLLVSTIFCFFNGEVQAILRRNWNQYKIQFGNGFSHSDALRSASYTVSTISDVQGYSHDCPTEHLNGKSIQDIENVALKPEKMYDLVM
^125 I-CGRP binding sites in membranes from rat cerebellum, sequence (Q9JJ74 27-148): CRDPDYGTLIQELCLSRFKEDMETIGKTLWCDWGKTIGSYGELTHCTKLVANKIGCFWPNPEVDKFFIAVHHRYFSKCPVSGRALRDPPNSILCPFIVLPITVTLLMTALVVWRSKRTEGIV
Procedure: Binding assays were carried out as described in Example II.
Cerebellum membranes were also tested, as this area contains high densities of CGRP receptors but low to absent amounts of the variant CGRP receptor subtypes present in nucleus accumbens (Sexton et al., 1988).

[3] = biological target: ^125 I-h CGRP binding sites in nucleus accumbens and surrounding regions; experiment: Competition for 125I-h CGRP binding to nucleus accumbens area (basal forebrain) membranes; parameters: species or system rat
Excerpt: From the ventral surface of rat brains, cuts were made rostral to the hypothalamus bounded laterally by the olfactory tracts and extending at a 45 angle medially from these tracts. This tissue, containing the nucleus accumbens and surrounding regions, was collected and weighed, and membranes prepared as described in Example I. The region from which tissue was collected as described above is here termed the basal forebrain, and includes the nucleus accumbens and surrounding regions.

[4] = system: insulin-stimulated glycogen synthesis in rat soleus muscle; experiment: Rat soleus muscle insulin-antagonism assay (inhibition of insulin-stimulated glycogen synthesis); format: cell-based; details: for IC50: insulin 1000 μU/ml, read-out: IC50 for inhibition of the stimulation of glycogen synthesis by insulin; for Agonist activity in words: amylin receptors in rat skeletal muscle
Procedure: The ability of insulin to stimulate glycogen synthesis in rat soleus muscle in vitro was measured as described by Leighton B. and Cooper, G. J. S., Nature 335:632-635 (1988), with the following modifications. Rats were unfed for 4 hours prior to sacrifice; muscles were not stretched on clips; bovine serum albumin (BSA) and HEPES were omitted from the assay medium; and, the insulin concentration used was 1000 μU/ml.

[5] = biological target: T2, CGRP binding sites (receptors) on liver membrane (Rattus norvegicus, UniProt Q63118+Q9JJ74); details: Morishita et al.; read-out: Affinity; cited from earlier work
T2 construct: host or cells: liver membranes; crude skeletal muscle membranes
T2 sequence (Q63118 24-464): as the sequence (Q63118 24-464) above
T2 sequence (Q9JJ74 27-148): as the sequence (Q9JJ74 27-148) above

[6] = biological target: ^125 I-CGRP binding in skeletal muscle crude membrane preparations; details: Chantry et al.; cited from earlier work
[7] = biological target: T3, calcitonin sites in brain and renal membranes (Homo sapiens, UniProt P30988); details: cited from earlier work
T3 construct: host or cells: brain and renal membranes
T3 sequence (P30988 25-474): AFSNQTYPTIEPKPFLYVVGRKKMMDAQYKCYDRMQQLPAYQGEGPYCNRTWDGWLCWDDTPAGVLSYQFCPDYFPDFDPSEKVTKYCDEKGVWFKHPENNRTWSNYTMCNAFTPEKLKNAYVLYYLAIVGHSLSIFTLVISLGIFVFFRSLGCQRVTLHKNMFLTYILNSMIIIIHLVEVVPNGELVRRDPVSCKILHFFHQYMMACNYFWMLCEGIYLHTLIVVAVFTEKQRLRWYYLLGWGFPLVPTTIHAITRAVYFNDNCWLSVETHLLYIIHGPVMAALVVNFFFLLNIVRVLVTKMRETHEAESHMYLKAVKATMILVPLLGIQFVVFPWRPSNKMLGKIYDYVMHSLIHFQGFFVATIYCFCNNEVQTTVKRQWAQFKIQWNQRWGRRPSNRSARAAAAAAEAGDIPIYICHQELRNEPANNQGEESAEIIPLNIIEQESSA

[8] = Plasma glucose increment after i.v. peptide in fasted anesthetized rats; details: doses of 1 and 10 μg i.v.
[9] = system: CGRP binding sites in cerebral cortex; details: human and rat cerebral cortex; cited from earlier work
rat liver membranes = experiment: 125I-r amylin binding to rat liver membranes; details: 15 pM tracer; 1 μM h CGRP or 1 μM r amylin as displacing peptide
Excerpt: (§1) Control tubes contained HBBM alone.
(§2) Filters were then counted in a gamma-counter.

[10] = system: rat soleus muscle membranes; experiment: Direct binding of labeled r amylin to rat soleus muscle membranes; details: by 1 μM unlabeled r amylin
Excerpt: as §1, §2

T1 sequence (Q63118 24-464): as the sequence (Q63118 24-464) above
T1 sequence (Q9JJ74 27-148): as the sequence (Q9JJ74 27-148) above

CC(C)C[C@H](NC(=O)[C@H](CC(N)=O)NC(=O)[C@H](CC(N)=O)NC(=O)[C@H](CO)NC(=O)[C@H](CO)NC(=O)[C@H](CCCNC(=N)N)NC(=O)[C@@H](NC(=O)[C@H](CC(C)C)NC(=O)[C@H](Cc1ccccc1)NC(=O)[C@H](CC(N)=O)NC(=O)[C@H](C)NC(=O)[C@H](CC(C)C)NC(=O)[C@H](CCCNC(=N)N)NC(=O)[C@H](CCC(N)=O)NC(=O)[C@@H](NC(=O)[C@H](C)NC(=O)[C@@H]1CSSC[C@H](NC(=O)[C@@H](N)CCCCN)C(=O)N[C@@H](CC(N)=O)C(=O)N[C@@H]([C@@H](C)O)C(=O)N[C@@H](C)C(=O)N[C@@H]([C@@H](C)O)C(=O)N1)[C@@H](C)O)C(C)C)C(=O)NCC(=O)N1CCC[C@H]1C(=O)N[C@H](C(=O)N[C@@H](CC(C)C)C(=O)N1CCC[C@H]1C(=O)N1CCC[C@H]1C(=O)N[C@H](C(=O)N[C@@H](CC(N)=O)C(=O)N[C@H](C(=O)NCC(=O)N[C@@H](CO)C(=O)N[C@@H](CC(N)=O)C(=O)N[C@H](C(=O)N[C@@H](Cc1ccc(O)cc1)C(N)=O)[C@@H](C)O)C(C)C)[C@@H](C)O)C(C)C [r amylin, rat amylin]
Hill Slope ([1]; competition against ^125 I-h CGRP, rat liver membranes): -0.67 | Hill Slope [2]: -0.897 | IC50 ([3]; Nucleus Accumbens Area, ^125 I-h CGRP tracer, r amylin 2 site fit): 5.89 nM | IC50 ([3]; high affinity site of biphasic inhibition): 0.026 nM | IC50 [4]: 8.3 ± 1.9 nM

eel calcitonin
Agonist activity in words [4]: potent agonists at amylin receptors | IC50 [4]: 0.4 nM

CC(C)C[C@H](NC(=O)CNC(=O)[C@H](C)NC(=O)[C@H](CC(C)C)NC(=O)[C@H](CCCNC(=N)N)NC(=O)[C@H](Cc1cnc(I)[nH]1)NC(=O)[C@@H](NC(=O)[C@@H](NC(=O)[C@@H]1CSSC[C@H](NC(=O)[C@H](C)N)C(=O)N[C@@H](CC(=O)O)C(=O)N[C@@H]([C@@H](C)O)C(=O)N[C@@H](C)C(=O)N[C@@H]([C@@H](C)O)C(=O)N1)C(C)C)[C@@H](C)O)C(=O)N[C@@H](CC(C)C)C(=O)N[C@@H](CO)C(=O)N[C@@H](CCCNC(=N)N)C(=O)N[C@@H](CO)C(=O)NCC(=O)NCC(=O)N[C@H](C(=O)N[C@H](C(=O)N[C@@H](CCCCN)C(=O)N[C@@H](CC(N)=O)C(=O)N[C@@H](CC(N)=O)C(=O)N[C@@H](Cc1ccccc1)C(=O)N[C@H](C(=O)N1CCC[C@H]1C(=O)N[C@H](C(=O)N[C@@H](CC(N)=O)C(=O)N[C@H](C(=O)NCC(=O)N[C@@H](CO)C(=O)N[C@@H](CCCCN)C(=O)N[C@@H](C)C(=O)N[C@@H](Cc1ccccc1)C(N)=O)C(C)C)[C@@H](C)O)C(C)C)C(C)C)C(C)C [^125 I-h CGRP]
Increase of binding to liver membranes in the presence of MgCl2 ([1]; 2 mM MgCl2): about 2.8 fold | Bmax ([1]; Scatchard analysis, rat liver membranes): 49.4 fmol/mg protein

CGRP
Potency relative to h CGRP8-37 ([1]; liver membranes): 4 times | Potency relative to r amylin ([1]; liver membranes): about 200 fold | Ki [5]: ~0.009 nM | IC50 [6]: 0.3 nM | Fold less potent in competing for calcitonin sites [7]: 500-1000 fold

CC(C)C[C@H](NC(=O)[C@H](CC(N)=O)NC(=O)[C@H](CC(N)=O)NC(=O)[C@H](CO)NC(=O)[C@H](CO)NC(=O)[C@H](CCCNC(=N)N)NC(=O)[C@@H](NC(=O)[C@H](CC(C)C)NC(=O)[C@H](Cc1ccccc1)NC(=O)[C@H](CC(N)=O)NC(=O)[C@H](C)NC(=O)[C@H](CC(C)C)NC(=O)[C@H](CCCNC(=N)N)NC(=O)[C@H](CCC(N)=O)NC(=O)[C@@H](NC(=O)[C@H](C)NC(=O)[C@@H]1CSSC[C@H](NC(=O)[C@@H](N)CCCCN)C(=O)N[C@@H](CC(N)=O)C(=O)N[C@@H]([C@@H](C)O)C(=O)N[C@@H](C)C(=O)N[C@@H]([C@@H](C)O)C(=O)N1)[C@@H](C)O)C(C)C)C(=O)NCC(=O)N1CCC[C@H]1C(=O)N[C@H](C(=O)N[C@@H](CC(C)C)C(=O)N1CCC[C@H]1C(=O)N1CCC[C@H]1C(=O)N[C@H](C(=O)N[C@@H](CC(N)=O)C(=O)N[C@H](C(=O)NCC(=O)N[C@@H](CO)C(=O)N[C@@H](CC(N)=O)C(=O)N[C@H](C(=O)N[C@@H](Cc1ccc(O)cc1)C(N)=O)[C@@H](C)O)C(C)C)[C@@H](C)O)C(C)C [amylin]
IC50 [6]: 10 nM | Hyperglycemic effect compared with CGRP [8]: more effective hyperglycemic agent

salmon calcitonin
Agonist activity in words [4]: potent agonists at amylin receptors | IC50 [4]: 0.38 nM

calcitonin
Fold less potent than rat or human CGRP [9]: 500-1000 fold

^125 I-r amylin: rat amylin Bolton-Hunter labeled with 125I at the N-terminal lysine, from Amersham
Specific binding to rat liver membranes (rat liver membranes): No specific binding | Proportion of total binding displaceable [10]: 15%
